The subject of experiment [1] is E. coli. Briefly: Bactericidal assay, E. coli colony count after 30 min incubation with peptide and CuSO4. The format is cell-based. The method, then: Bovine TAP was synthesized and purified to a single HPLC peak. Bactericidal assay was carried out by growing wild-type E. coli in tryptic soy broth (TSB) until the OD600 reached 0.2. Cells were then diluted in 50 μl 10 mM NaPO4 buffer, pH 7.4, to 4×10^5 cells/ml. […] Five Al samples were plated on L-agar, and the plates were incubated at 37° C. overnight. Colonies were then counted.

Experiment [2] has as its system Pseudomonas aeruginosa. Briefly: Bactericidal assay, Pseudomonas strain from a cystic fibrosis patient, with TAP, NaCl and CuSO4. The format is cell-based. Here is the method:
Bovine TAP of 38 amino acids was chemically synthesized by the method of Duclohier ((1989) Biophys. J. 5:1017-1021), and purified to a single peak by HPLC. Bactericidal assay was carried out by growing a wild-type Pseudomonas strain obtained from a cystic fibrosis patient in TSB until the OD600 reached 0.2. Cells were then diluted in 50 μl 10 mM NaPO4 buffer, pH 7.4, to 4×10^5 cells/ml. […] TAP, varying concentrations of NaCl, and 0.1 mM CuS04 were added, and the mixtures were incubated for 30 minutes at 37° C. Five μl samples were taken and plated on L-agar, and the plates were incubated at 37° C. overnight. Colonies were then counted.

[3] abbreviates: NaCl 0 mM, TAP 0 μg/ml, CU 0 mM as printed (second such line).
The mark [4] stands for this setting: NaCl 15 mM, TAP 0 μg/ml, CU 0.1 mM.
[5] abbreviates: NaCl 25 mM, TAP 0 μg/ml, CU 0.1 mM.
Setting [6] is: NaCl 50 mM, TAP 0 μg/ml, CU 0.1 mM.
Where [7] appears, read: NaCl 75 mM, TAP 0 μg/ml, CU 0.1 mM.
Where [8] appears, read: peptide 10 ug/ml, CuSO4 0 mM, 30 min 37 C.
[9] abbreviates: peptide 10 ug/ml, CuSO4 0.01 mM, 30 min 37 C.
[10] abbreviates: peptide 10 ug/ml, CuSO4 0.1 mM, 30 min 37 C.
The mark [11] stands for this setting: NaCl 15 mM, TAP 10 μg/ml, CU 0.1 mM.
Setting [12] is: NaCl 25 mM, TAP 10 μg/ml, CU 0.1 mM.
Setting [13] is: NaCl 50 mM, TAP 10 μg/ml, CU 0.1 mM.
The mark [14] stands for this setting: NaCl 75 mM, TAP 10 μg/ml, CU 0.1 mM.

In the case of `O=S(=O)([O-])[O-].[Cu+2]` [CuSO4, copper sulfate (cupric sulfate)], the “% SURVIVAL” value amounted to 62% in experiment [1] (No Peptide, CuSO4 0.01 mM); 22% in experiment [1] (No Peptide, CuSO4 0.1 mM); 16% in experiment [1] (No Peptide, CuSO4 1 mM); 7% in experiment [1] (No Peptide, CuSO4 10 mM); 35% in experiment [2] (setting [3]); 39% in experiment [2] (setting [4]). Further, the figures for the “% SURVIVAL” value in experiment [2] (setting [5]), in experiment [2] (setting [6]) and in experiment [2] (setting [7]) were 34%, 46% and 53%, respectively. In addition, the “# COLONIES” value in experiment [1] (No Peptides, CuSO4 0.01 mM) was 1776; in experiment [1] (No Peptides, CuSO4 0.1 mM) it was 640; in experiment [1] (No Peptides, CuSO4 1 mM), 443; in experiment [1] (No Peptides, CuSO4 10 mM), 211; in experiment [2] (setting [3]) it was 534; in experiment [2] (setting [4]), 580. Further, the figures for the “# COLONIES” value in experiment [2] (setting [5]), in experiment [2] (setting [6]) and in experiment [2] (setting [7]) were 513, 696 and 796, respectively.

Regarding “Tracheal Antimicrobial Peptide (NPVSCVRNKGICVPIRCPGSMKQIGTCVGRAVKCCRKK; UniProt P25068 27-64, looked up) [TAP, airway beta-defensin; bovine TAP of 38 amino acids, chemically synthesized and purified to a single HPLC peak]”, the “% SURVIVAL” value in experiment [1] (TAP 1 ug/ml, CuSO4 0 mM) is on record as 40%; in experiment [1] (TAP 1 ug/ml, CuSO4 0.01 mM) it was 8%; in experiment [1] (TAP 1 ug/ml, CuSO4 0.1 mM), 2%; in experiment [1] (setting [8]), 9%; in experiment [1] (setting [9]), 8%; in experiment [1] (setting [10]) it was 2%. In addition, the “% SURVIVAL” value was 15% in experiment [2] (setting [11]), 6% in experiment [2] (setting [12]), 16% in experiment [2] (setting [13]) and 24% in experiment [2] (setting [14]). Also, the “# COLONIES” value came to 119 in experiment [1] (peptide 10 ug/ml, Cu 0 mM); 106 in experiment [1] (peptide 10 ug/ml, Cu 0.01 mM); 32 in experiment [1] (peptide 10 ug/ml, Cu 0.1 mM); 233 in experiment [2] (setting [11]); 89 in experiment [2] (setting [12]); 242 in experiment [2] (setting [13]). The “# COLONIES” value in experiment [2] (setting [14]) is recorded as 363. The “killing of Pseudomonas by the combination of copper ions and TAP versus TAP alone” value in experiment [2] (copper 0.1 mM, increasing NaCl concentrations) is given as “more effective than TAP alone”.

For magainin, the “effect of CuSO4 on the antimicrobial activity of the peptide” value in experiment [1] (0.01 to 0.1 mM CuS04) was “enhanced the antimicrobial activity”. For the same compound, the “# COLONIES” value in experiment [1] (peptide 10 ug/ml, Cu 0 mM) is recorded as 1895; in experiment [1] (peptide 10 ug/ml, Cu 0.01 mM), 1654; in experiment [1] (peptide 10 ug/ml, Cu 0.1 mM), 975. The “% SURVIVAL” value in experiment [1] (setting [8]) came out at 80%; in experiment [1] (setting [9]), 70%; in experiment [1] (setting [10]), 41%.

The values are drawn from US6042848A, “Enhancement of antimicrobial peptide activity by metal ions” (The Board of Trustees of Southern Illinois University, priority 1997, dated 2000).
